# Measurements taken from US5721229A, “Soluble forms of cephalosporins and treatment of animals” (Veterinary Pharmacy Corporation, priority 1995, dated 1998).
# Where two headings read alike, the source gives them in different places.
# What was measured:
# [1] = tested on: Actinobacillis pleuropneumonia Type 7
# Procedure: (§1) The mixture and solution of the invention was tested in 100 to 200 pound pigs. […] A 30 pig pen was used as a non-treated control group to measure the efficacy of the treatment.
# all bacteria = assay: Sensitivity results by the University Diagnostic Laboratory, all bacteria (Example 6 table)
# Procedure: as §1
# [2] = cited from earlier work
# [3] = pH 4.5; cited from earlier work
# Procedure for Pasturella multocida: as §1
# Source text for Step suis type 2: A farm was selected which was known to have problems with Step suis type 2 in its nursery pigs. The experiment involved two groups of 30 pigs, each group was in the same room, but in separate pens. Each pig was individually tagged and a tonsilar swab was done on day one and day seven. Cultures were run on all the swabs.
# Procedure for Streptococcus suis Sp.: as §1
compound,measurement,setting,value
"CC1=C(C(=O)O)N2C(=O)[C@@H](NC(=O)[C@H](N)c3ccccc3)[C@H]2SC1 [cephalexin, α-aminobenzyl-3-desacetoxycephalosporin]",Sensitivity of the organism,Step suis type 2; isolates from treated group,sensitive
same,Sensitivity of the organism,Step suis type 2; isolates from untreated control group,sensitive
same,Sensitivity to cephalexin,Pasturella multocida,showed sensitivity
same,Sensitivity to cephalexin,Streptococcus suis Sp.,showed sensitivity
same,Sensitivity to cephalexin,[1],showed sensitivity
same,Sensitivity results by the University Diagnostic Laboratory,all bacteria; control group of 30 pigs,sensitive to cephalexin
same,Sensitivity results by the University Diagnostic Laboratory,all bacteria; treated group of 970 pigs,sensitive to cephalexin
CC1(C)S[C@@H]2[C@H](NC(=O)[C@H](N)c3ccccc3)C(=O)N2[C@H]1C(=O)O [sodium ampicillin],pH of aqueous solution,[2]; aqueous solution,~9.5
CC1(C)S[C@@H]2[C@H](NC(=O)[C@H](N)c3ccccc3)C(=O)N2[C@H]1C(=O)O [ampicillin],pH on dissolution with sodium carbonate,[2]; 95 mole-% of sodium carbonate,8.3
same,Mole-% of sodium carbonate sufficient to dissolve,[2]; pH 8.3,95 mole-%
CC1=C(C(=O)O)N2C(=O)[C@@H](NC(=O)[C@H](N)c3ccccc3)[C@H]2SC1 [cephalexin monohydrate],Neutrally charged fraction,[3],100%
